Experimental data: the supplement of paper PMC10307832

Columns and labels:
Assay in all cases: relative viability (nuclei count vs DMSO), 5 days (fraction); higher = more cells survive
NCI-H1755 = system: NCI-H1755
Summary of the method: (§1)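 After 5 days of treatment, lung cancer cells in 1536-well plates were fixed and stained in a single step (final 0.05% Triton X-100, 1% formaldehyde, 1 ug/ml Hoechst) and their nuclei counted on 4× images. Treatment had been applied by pin tool the day after seeding as one drug alone or as a fixed anchor-drug dose with five library-drug doses (not always all listed) in √10 steps. Relative viability is the nuclei count of treated wells divided by that of vehicle wells, and values are medians of duplicate plates.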

NCI-H1915 = system: NCI-H1915
Summary of the method: as §1

NCI-H1975 = system: NCI-H1975
Summary of the method: as §1

NCI-H2023 = system: NCI-H2023
Summary of the method: as §1

NCI-H2085 = system: NCI-H2085
Summary of the method: as §1

NCI-H2126 = system: NCI-H2126
Summary of the method: as §1

NCI-H3122 = system: NCI-H3122
Summary of the method: as §1

NCI-H322M = system: NCI-H322M
Summary of the method: as §1

NCI-H358 = system: NCI-H358
Summary of the method: as §1

NCI-H441 = system: NCI-H441
Summary of the method: as §1

UMC-11 = system: UMC-11
Summary of the method: as §1

With `Nc1ccn([C@@H]2O[C@H](CO)[C@@H](O)[C@@H]2O)c(=O)n1` [Cytarabine] + Cc1nc(Nc2ncc(C(=O)Nc3c(C)cccc3Cl)s2)cc(N2CCN(CCO)CC2)n1 [Dasatinib] (partner 0.075 µM) the relative viability (NCI-H1755; first compound 0.005 µM) was 0.439, the relative viability (NCI-H1755; first compound 0.01581 µM) was 0.316 and the relative viability (NCI-H1755; first compound 0.05 µM) was 0.372. For the same molecule, the relative viability (NCI-H1755; first compound 0.1581 µM) was 0.257, the relative viability (NCI-H1755; first compound 0.5 µM) was 0.222 and the relative viability (NCI-H1915; first compound 0.005 µM) was 0.366. The relative viability (NCI-H1915; first compound 0.01581 µM) was 0.29, the relative viability (NCI-H1915; first compound 0.05 µM) was 0.273 and the relative viability (NCI-H1915; first compound 0.1581 µM) was 0.183. It also gave a relative viability (NCI-H1915; first compound 0.5 µM) of 0.181, a relative viability (NCI-H1975; first compound 0.005 µM) of 0.329 and a relative viability (NCI-H1975; first compound 0.01581 µM) of 0.47. The relative viability (NCI-H1975; first compound 0.05 µM) was 0.338, the relative viability (NCI-H1975; first compound 0.1581 µM) was 0.297 and the relative viability (NCI-H1975; first compound 0.5 µM) was 0.191. For the same molecule, the relative viability (NCI-H2023; first compound 0.005 µM) was 0.315, the relative viability (NCI-H2023; first compound 0.01581 µM) was 0.219 and the relative viability (NCI-H2023; first compound 0.05 µM) was 0.145. For the same molecule, the relative viability (NCI-H2023; first compound 0.1581 µM) was 0.107, the relative viability (NCI-H2023; first compound 0.5 µM) was 0.0893 and the relative viability (NCI-H2085; first compound 0.005 µM) was 0.202. It also gave a relative viability (NCI-H2085; first compound 0.01581 µM) of 0.263, a relative viability (NCI-H2085; first compound 0.05 µM) of 0.2 and a relative viability (NCI-H2085; first compound 0.1581 µM) of 0.188. It also gave a relative viability (NCI-H2085; first compound 0.5 µM) of 0.2, a relative viability (NCI-H2126; first compound 0.005 µM) of 0.516 and a relative viability (NCI-H2126; first compound 0.01581 µM) of 0.55. For the same molecule, the relative viability (NCI-H2126; first compound 0.05 µM) was 0.429, the relative viability (NCI-H2126; first compound 0.1581 µM) was 0.378 and the relative viability (NCI-H2126; first compound 0.5 µM) was 0.32. The relative viability (NCI-H3122; first compound 0.005 µM) was 0.807, the relative viability (NCI-H3122; first compound 0.01581 µM) was 0.76 and the relative viability (NCI-H3122; first compound 0.05 µM) was 0.789. The relative viability (NCI-H3122; first compound 0.1581 µM) was 0.349, the relative viability (NCI-H3122; first compound 0.5 µM) was 0.17 and the relative viability (NCI-H322M; first compound 0.005 µM) was 0.259. For the same molecule, the relative viability (NCI-H322M; first compound 0.01581 µM) was 0.272, the relative viability (NCI-H322M; first compound 0.05 µM) was 0.26 and the relative viability (NCI-H322M; first compound 0.1581 µM) was 0.243. For the same molecule, the relative viability (NCI-H322M; first compound 0.5 µM) was 0.274, the relative viability (NCI-H358; first compound 0.005 µM) was 0.206 and the relative viability (NCI-H358; first compound 0.01581 µM) was 0.167. For the same molecule, the relative viability (NCI-H358; first compound 0.05 µM) was 0.131, the relative viability (NCI-H358; first compound 0.1581 µM) was 0.0707 and the relative viability (NCI-H358; first compound 0.5 µM) was 0.0702. It also gave a relative viability (NCI-H441; first compound 0.005 µM) of 0.545, a relative viability (NCI-H441; first compound 0.01581 µM) of 0.533 and a relative viability (NCI-H441; first compound 0.05 µM) of 0.485. The relative viability (NCI-H441; first compound 0.1581 µM) was 0.324, the relative viability (NCI-H441; first compound 0.5 µM) was 0.293 and the relative viability (UMC-11; first compound 0.005 µM) was 0.279. For the same molecule, the relative viability (UMC-11; first compound 0.01581 µM) was 0.298, the relative viability (UMC-11; first compound 0.05 µM) was 0.379 and the relative viability (UMC-11; first compound 0.1581 µM) was 0.2. The relative viability (UMC-11; first compound 0.5 µM) was 0.169.
